Source: patent publication US7709443B2, “Cyclic peptide antitumor agents” (Northwestern University, priority 2003, dated 2010)
Values after ≈ are worked out from the molar mass of the structure shown. Read-outs that look alike come from different tables or passages of the source. Square brackets hold non-standard residues; d marks the D form. Peptide text beside a SMILES is read from it. NMePhe(4-Br) = CN[C@@H](Cc1ccc(Br)cc1)C(=O)O; Phe(4-Br) = N[C@@H](Cc1ccc(Br)cc1)C(=O)O; Hica(2S) = CC(C)C[C@H](O)C(=O)O; NMeL = CN[C@@H](CC(C)C)C(=O)O

Tests used:
[1] = tested on: HCT-116 (human colon carcinoma); conditions: as found for the natural product; cited from earlier work
[2] = tested on: National Cancer Institute's 60 cell-line panel; conditions: mean over panel; cited from earlier work
topoisomerase I = conditions: mechanism study in molluscum contagiosum virus; cited from earlier work
[3] = tested on: WM115 (Melanoma) human cancer cell line; conditions: three days
Experimental: (§5) Cells were plated at 5,000 cells per well in 24-well plates, treated for three days, then counted. Cell number was normalized to the number of cells in untreated control (DMSO) cells, also after three days.

[4] = tested on: HCT-116 (human colon carcinoma); test: cells; conditions: HCT-116 bioassay, Table 1
Excerpt: The HCT-116 human colon adenocarcinoma screen is a tissue culture first line assay to detect inherent cytotoxicity against malignant cancer cells. This strain is considered to be an “indicator strain” by many for the selection of inhibitors that target solid tumors. The assay is a calorimetric endpoint assay which can be produced in 96-well format trays. Data are acquired by plate reader and dose response curves are produced by computer analysis. […] This assay is run routinely as described below and would be understood in the art.
1. Media (1000 mL McCoy's 5A Medium, 114 mL Fetal Bovine Serum, 25 mL Hepes buffer solution (IM), 12.5 mL Penicillin-Streptomycin solution)
2. Cell line (HCT-116, human colon cancer cell line)
3. Indicator (MTS and PMS in DPBS)
5. Standard anticancer drug (etoposide (VP-16); stock is 4 mg/mL in DMSO
6. DPBS (without CaCl2 and MgCl2)
1. Remove medium from the cells and rinse with 10 mL sterile DPBS.
3. Allow to stand in hood for 1 minute.
4. Remove trypsin with sterile pipette.
5. Allow flask to stand in hood for 2-5 minutes.
6. Add 10 mL of media to flask and pipette up and down to gently break up cell clumps.
7. Count the number of cells using a hemacytometer.
8. Determine # of plates needed, and total volume of cell suspension (16 or 18 mL per plate).
9. Dilute cells to a final concentration of 2.5×10^4 cells/mL in a sterile flask.
10. Pour cell suspension into a sterile trough.
For Serial Dilution Plates
1. Add 175 μL to each well in the first row of a 96 well plate.
2. Add 150 μL to the rest of the wells in A1-A10 & A12.
3. In row 11 add 150 μL cell suspension to the first 6 wells and only media to the last two.
For Single Concentration Plates
1. Add 150 μL of sterile media to G11 & H11.
2. Add 150 μL of cell suspension to all other wells.
3. Add 25 μL more to well H1.
Incubate plates overnight at 37° C. & 5% CO2
1. Add 25 μL of test compounds @ 10 mg/mL to A1-A10, 25 μL of DMSO to A11 & 25 μL of etoposide (4 mg/mL) to A12.
2. Using a twelve channel pipette, mix well then remove 50 μL from the first row and transfer to the next row, repeat down the plate until row F, then remove tip # 11 and continue down plate discarding the last 50 μL.
3. Incubate plates for 72 h.
1. Add 20 μL of MTS/PMS solution to each well.
3. Read plates @490 nm on plate reader.

[5] = tested on: PC-3 (Prostate) human cancer cell line; conditions: three days
Experimental: as §5

[6] = tested on: MDA-MB231 (Breast) human cancer cell line; conditions: three days
Experimental: as §5

[7] = tested on: S2013 human pancreatic cancer cells; test: Cell cycle analysis by flow cytometry, S2013; type: cell-based; conditions: S2013, 10 μM, 24 hours
Experimental: (§1) Cell Cycle Analysis by Flow Cytometry. AsPC-1 and S2013 human pancreatic cancer cells were cultured in T75 flasks with media containing 10% FBS. After reaching 50-60% confluence, the cells were serum-starved for 24 hours, and then treated with 10 μM of cyclic peptide 1k for 24 hours. At the end of the treatment, the cells were harvested with trypsin-EDTA solution to produce single cell suspension. The cells were then centrifuged at 1000×g for 10 minutes. The pellets were washed twice with ice-cold phosphate buffer saline (PBS), and re-suspended in 0.5 ml PBS. 5 ml of ice-cold 70% ethanol was added to each cell suspension and incubated for 12 hours at 4° C. The cells fixed in ethanol were centrifuged at 1000×g for 10 minutes and the subsequent pellets were washed with ice-cold PBS twice. The final cell pellets were reconstituted in the 1 ml Telford reagent and horizontally shaken for 1 hour in the dark at room temperature. The red fluorescence of the single events was recorded using a laser beam at 488 nm excitation 8 and 610 nm as emission 8 to measure the DNA index. Experiments were repeated three times.

[8] = tested on: AsPC-1 human pancreatic cancer cells; test: Cell cycle analysis by flow cytometry, AsPC-1; type: cell-based; conditions: AsPC-1, 10 μM, 24 hours
Experimental: as §1

AsPC-1 cells [9] = test: Cell proliferation assay (Guava ViaCount cell number), AsPC-1; type: cell-based, human; conditions: AsPC-1, 10 μM, 72 hours, vs vehicle (DMSO)
Experimental: (§2) Given the results of the preceding example, several compounds of this invention were tested against human pancreatic cancer cell lines. Two cancer cell lines were selected: S2-013 (well-differentiated) and AsPC-1 (poorly differentiated). These cell lines were purchased from American Type Culture Collection (Manassas, Va.). Both cell lines were grown in DMEM and plated as monolayers in the medium supplemented with 10% fetal bovine serum in a humidified atmosphere of […] and 5% CO2 at 37° C. The cells were regularly seeded into 75 cm^2 flasks with media changes every second or third day. For experiments, cells were grown to 70% confluence, digested with trypsin-EDTA, and plated in either 6-, 24-, or 48-well plates.
(§3) Cell Proliferation Assay. Cells were regularly seeded into three 6-well plates and incubated at 37° C. for 24 hours. Cells were then cultured in serum-free medium for another 24 hours and treated in fresh serum-free medium with or without 10 μM of cyclic peptide 1k for 24, 48, and 72 hours. At the end of each time period, the cells were trypsinized to produce a single cell suspension, and the cell number in each well was determined using Guava Technologies=ViaCount Assay (Guava Technologies Inc, Hayward, Calif.).
(§4) Statistical Analysis. Data were analyzed by ANOVA with Dunnett's or Bonferoni's corrections for multiple comparisons, as appropriate. This analysis was performed with the Prism software package (GraphPad, San Diego, Calif.). Data were expressed as mean±SEM.

[10] = tested on: AsPC-1 human pancreatic cancer cells; test: DNA synthesis by [methyl-3H] thymidine incorporation, AsPC-1; type: cell-based; conditions: AsPC-1, 24 hours, FIG. 6
Experimental: as §2
DNA Synthesis by [methyl-^3H] Thymidine Incorporation. Cells were plated in 24-well plates at a concentration of 50,000 cells/well. […] Radioactivity, indicating incorporation of ^3H-methyl thymidine into DNA, was measured by adding scintillation cocktail and counting on a scintillation counter (LKB RackBeta; Wallac, Turku, Finland).
Statistical Analysis. Data were analyzed by ANOVA with Dunnett's or Bonferoni's corrections for multiple comparisons, as appropriate. […] Data were expressed as mean±SEM.

AsPC-1 cells [11] = test: Morphological changes using light microscopy, AsPC-1; type: cell-based, human; conditions: AsPC-1, 24 hours, 0.1-100 μM tested
Experimental: as §2
Morphological Changes Using Light Microscopy. AsPC-1 and S2-013 cells plated in 24-well plates were treated with varying concentrations (0.1-100 μM) of cyclic peptide 1k for 24 hours. Cells were then viewed using light microscopy, and digital images were taken with a Kodak DC120 zoom digital camera (Eastman Kodak Co., Rochester, N.Y.).

S2-013 cell line = test: Cell proliferation assay (Guava ViaCount cell number), S2-013; type: cell-based, human; conditions: S2-013, 10 μM, 72 hours, vs vehicle (DMSO)
Experimental: as §2, §3, §4

[12] = tested on: Caspase-3 activity in PC-3 cells; test: Caspase-3 activity, fluorometric assay; type: cell-based, human; conditions: relative to DMSO and staurosporin controls
Experimental: Caspase-3 is a mediator of apoptosis, and induction of Caspase-3 activity indicates induction of apoptosis. Activity of Caspase-3 was measured by a fluorometric assay, as described in the literature, referenced above.

PC-3 cells = test: Annexin V binding, induction of apoptosis; type: cell-based, human; conditions: after 72 hours
Excerpt: The ability of the compounds in this invention to induce apoptosis was also studied, based on a methodology previously reported in the literature. (See, Soff et al. Cancer Res., 63:4275-4289, 2003.) As understood by those skilled in the art, the ability of Annexin V to bind two cells is related to altered phospholipids on a cell surface, induced by apoptosis. As such, increased Annexin V binding indicates induction of apoptosis.

In the case of `CC(C)C[C@@H]1NC(=O)[C@H](C(C)C)NC(=O)[C@H](CC(C)C)OC(=O)[C@H](CC(C)C)NC(=O)[C@H](Cc2ccccc2)NC1=O` [Sansalvamide A, reference compound] (cyclo(FL[Hica(2S)]VL)), the “in vitro value toward HCT-116 colon carcinoma” value [1] is given as 9.8 µg/mL, the “mean IC50 against NCI 60 cell-line panel” value [2] is given as 27.4 µg/mL and the “inhibition of topoisomerase I” value (topoisomerase I) is given as “inhibitor of topoisomerase I”. The “Fold Induction Over DMSO control” value ([3]; WM115, 1 μM) was 0.98, the “Fold Induction Over DMSO control” value ([3]; WM115, 10 μM) was 0.02 and the IC50 [4] was 9.8 µg/mL (≈ 16.7 µM). For the same compound, the “Fold Induction Over DMSO control” value ([5]; PC-3, 1 μM) was 0.95, the “Fold Induction Over DMSO control” value ([5]; PC-3, 10 μM) was 0.22 and the “Fold Induction Over DMSO control” value ([6]; MDA-MB231, 1 μM) was 0.90. The “Fold Induction Over DMSO control” value ([6]; MDA-MB231, 10 μM) was 0.09.

For `CC(C)C[C@@H]1NC(=O)[C@H](CC(C)C)NC(=O)[C@H](Cc2ccc(Br)cc2)N(C)C(=O)[C@H](CC(C)C)NC(=O)[C@H](C(C)C)NC1=O` [Compound 1k] (cyclo([NMePhe(4-Br)]LLVL)), the S phase fraction [7] was “marked decrease”, the cell cycle effect [7] was “G0/G1 phase cell cycle arrest” and the “subG1 fraction of apoptotic cells” value [7] was “increase”. For the same compound, the S phase fraction [8] was “marked decrease”, the cell cycle effect [8] was “G0/G1 phase cell cycle arrest” and the “subG1 fraction of apoptotic cells” value [8] was “increase”. The “change in number of cells” value (AsPC-1 cells [9]) was “significant (p<0.05) decrease”, the “concentration-dependent effect on thymidine incorporation” value [10] was “concentration-dependent inhibition” and the “compound concentration giving obvious morphological changes” value (AsPC-1 cells [11]) was ≥ 10 μM. For the same compound, the “Fold Induction Over DMSO control” value ([3]; WM115, 1 μM) was 1.05, the “Fold Induction Over DMSO control” value ([3]; WM115, 10 μM) was 0.13 and the “Fold Induction Over DMSO control” value ([5]; PC-3, 1 μM) was 0.95. The “Fold Induction Over DMSO control” value ([5]; PC-3, 10 μM) was 0.66, the “Fold Induction Over DMSO control” value ([6]; MDA-MB231, 1 μM) was 3.17 and the “Fold Induction Over DMSO control” value ([6]; MDA-MB231, 10 μM) was 0.41. For the same compound, the “change in number of cells” value (S2-013 cell line) was “significant (p<0.05) decrease”.

For `CC(C)C[C@@H]1NC(=O)[C@H](Cc2ccc(Br)cc2)NC(=O)[C@H](CC(C)C)N(C)C(=O)[C@H](C(C)C)NC(=O)[C@H](CC(C)C)NC1=O` [Compound 1i] (cyclo([Phe(4-Br)]LLV[NMeL])), the “change in number of cells” value (AsPC-1 cells [9]) was “significant (p<0.05) decrease”, the Caspase-3 activity [12] was “induced” and the “Fold Induction Over DMSO control” value ([3]; WM115, 1 μM) was 1.44. The “induction of apoptosis (Annexin V binding)” value (PC-3 cells) was “induction of apoptosis was observed”, the “Fold Induction Over DMSO control” value ([5]; PC-3, 1 μM) was 0.85 and the “Fold Induction Over DMSO control” value ([6]; MDA-MB231, 1 μM) was 0.96. For the same compound, the “change in number of cells” value (S2-013 cell line) was “significant (p<0.05) decrease”.
